Experimental data published in publication PMC12446476 (Nature Communications, 2025).
≈ marks a conversion by molar mass, not a printed value. Where two headings read alike, the source gives them in different places.

Test system: non-gonococcal Neisseria
Assay: MIC determination for non-gonococcal Neisseria, agar dilution
Format: cell-based, Neisseria species
Details: read-out: Minimum inhibitory concentration
Description: The 2024 WHO N. gonorrhoeae reference strains were used for quality control. Only whole MIC doubling dilutions are reported. Clinical breakpoints or the epidemiological cutoff (ECOFF, to indicate azithromycin resistance) from EUCAST (v14.0, https://www.eucast.org/clinical_breakpoints) were used to classify isolates as antimicrobial susceptible or resistant. […] Two times the standard inoculum defined by CLSI was used to establish consistent growth in untreated control samples for some strains. In vitro time-kill assays were performed according to CLSI guidelines[65] using Columbia Broth (BD Difco) supplemented with 1% IsoVitaleX Enrichment (BD). Viable bacterial counts were generated by plating 10-fold serially diluted samples on GC agar plates containing 1% IsoVitaleX Enrichment (BD).

Cc1c(CN(C)C(=O)/C=C/c2cnc3c(c2)N[C@H](C)[C@H](O)C(=O)N3)oc2ccccc12 [Debio 1453]
MIC (Neisseria mucosa 4, Replicate 1): 1 µg/mL (≈ 2.38 µM) | MIC (Neisseria mucosa 4, Replicate 2): 1 µg/mL (≈ 2.38 µM) | MIC (Neisseria mucosa 4, Replicate 3): 1 µg/mL (≈ 2.38 µM) | MIC (Neisseria mucosa 5, Consensus): 0.5 µg/mL (≈ 1.19 µM) | MIC (Neisseria mucosa 5, Replicate 1): 0.25 µg/mL (≈ 0.595 µM) | MIC (Neisseria mucosa 5, Replicate 2): 0.5 µg/mL (≈ 1.19 µM) | MIC (Neisseria mucosa 5, Replicate 3): 0.5 µg/mL (≈ 1.19 µM) | MIC (Neisseria mucosa 6, Consensus): 0.5 µg/mL (≈ 1.19 µM) | MIC (Neisseria mucosa 6, Replicate 1): 0.25 µg/mL (≈ 0.595 µM) | MIC (Neisseria mucosa 6, Replicate 2): 0.5 µg/mL (≈ 1.19 µM) | MIC (Neisseria mucosa 6, Replicate 3): 0.5 µg/mL (≈ 1.19 µM) | MIC (Neisseria mucosa 7, Consensus): 0.25 µg/mL (≈ 0.595 µM) | MIC (Neisseria mucosa 7, Replicate 1): 0.25 µg/mL (≈ 0.595 µM) | MIC (Neisseria mucosa 7, Replicate 2): 0.25 µg/mL (≈ 0.595 µM) | MIC (Neisseria mucosa 7, Replicate 3): 0.25 µg/mL (≈ 0.595 µM) | MIC (Neisseria mucosa 8, Consensus): 1 µg/mL (≈ 2.38 µM) | MIC (Neisseria mucosa 8, Replicate 1): 1 µg/mL (≈ 2.38 µM) | MIC (Neisseria mucosa 8, Replicate 2): 1 µg/mL (≈ 2.38 µM) | MIC (Neisseria mucosa 8, Replicate 3): 1 µg/mL (≈ 2.38 µM) | MIC (Neisseria mucosa 9, Consensus): 2 µg/mL (≈ 4.76 µM) | MIC (Neisseria mucosa 9, Replicate 1): 1 µg/mL (≈ 2.38 µM) | MIC (Neisseria mucosa 9, Replicate 2): 2 µg/mL (≈ 4.76 µM) | MIC (Neisseria mucosa 9, Replicate 3): 2 µg/mL (≈ 4.76 µM) | MIC (Neisseria perflava 1, Consensus): 0.25 µg/mL (≈ 0.595 µM) | MIC (Neisseria perflava 1, Replicate 1): 0.25 µg/mL (≈ 0.595 µM) | MIC (Neisseria perflava 1, Replicate 2): 0.25 µg/mL (≈ 0.595 µM) | MIC (Neisseria perflava 1, Replicate 3): 0.25 µg/mL (≈ 0.595 µM) | MIC (Neisseria perflava 2, Consensus): 0.032 µg/mL (≈ 0.0761 µM) | MIC (Neisseria perflava 2, Replicate 1): 0.032 µg/mL (≈ 0.0761 µM) | MIC (Neisseria perflava 2, Replicate 2): 0.032 µg/mL (≈ 0.0761 µM) | MIC (Neisseria perflava 2, Replicate 3): 0.032 µg/mL (≈ 0.0761 µM) | MIC (Neisseria perflava 3, Consensus): 0.032 µg/mL (≈ 0.0761 µM) | MIC (Neisseria perflava 3, Replicate 1): 0.032 µg/mL (≈ 0.0761 µM) | MIC (Neisseria perflava 3, Replicate 2): 0.032 µg/mL (≈ 0.0761 µM) | MIC (Neisseria perflava 3, Replicate 3): 0.032 µg/mL (≈ 0.0761 µM) | MIC (Neisseria perflava 4, Consensus): 0.25 µg/mL (≈ 0.595 µM) | MIC (Neisseria perflava 4, Replicate 1): 0.25 µg/mL (≈ 0.595 µM) | MIC (Neisseria perflava 4, Replicate 2): 0.25 µg/mL (≈ 0.595 µM) | MIC (Neisseria perflava 4, Replicate 3): 0.25 µg/mL (≈ 0.595 µM) | MIC (Neisseria perflava 6, Consensus): 0.25 µg/mL (≈ 0.595 µM) | MIC (Neisseria perflava 6, Replicate 1): 0.25 µg/mL (≈ 0.595 µM) | MIC (Neisseria perflava 6, Replicate 2): 0.5 µg/mL (≈ 1.19 µM) | MIC (Neisseria perflava 6, Replicate 3): 0.25 µg/mL (≈ 0.595 µM) | MIC (Neisseria perflava 7, Consensus): 0.5 µg/mL (≈ 1.19 µM) | MIC (Neisseria perflava 7, Replicate 1): 0.5 µg/mL (≈ 1.19 µM) | MIC (Neisseria perflava 7, Replicate 2): 0.5 µg/mL (≈ 1.19 µM) | MIC (Neisseria perflava 7, Replicate 3): 0.5 µg/mL (≈ 1.19 µM) | MIC (Neisseria perflava 8, Consensus): 0.25 µg/mL (≈ 0.595 µM) | MIC (Neisseria perflava 8, Replicate 1): 0.25 µg/mL (≈ 0.595 µM) | MIC (Neisseria perflava 8, Replicate 2): 0.5 µg/mL (≈ 1.19 µM) | MIC (Neisseria perflava 8, Replicate 3): 0.25 µg/mL (≈ 0.595 µM) | MIC (Neisseria perflava 9, Consensus): 0.5 µg/mL (≈ 1.19 µM) | MIC (Neisseria perflava 9, Replicate 1): 0.25 µg/mL (≈ 0.595 µM) | MIC (Neisseria perflava 9, Replicate 2): 0.5 µg/mL (≈ 1.19 µM) | MIC (Neisseria perflava 9, Replicate 3): 0.5 µg/mL (≈ 1.19 µM) | MIC (Neisseria perflava 10, Consensus): 0.5 µg/mL (≈ 1.19 µM) | MIC (Neisseria perflava 10, Replicate 1): 0.5 µg/mL (≈ 1.19 µM) | MIC (Neisseria perflava 10, Replicate 2): 0.5 µg/mL (≈ 1.19 µM) | MIC (Neisseria perflava 10, Replicate 3): 0.5 µg/mL (≈ 1.19 µM) | MIC (Neisseria perflava 11, Consensus): 1 µg/mL (≈ 2.38 µM) | MIC (Neisseria perflava 11, Replicate 1): 1 µg/mL (≈ 2.38 µM) | MIC (Neisseria perflava 11, Replicate 2): 1 µg/mL (≈ 2.38 µM) | MIC (Neisseria perflava 11, Replicate 3): 0.5 µg/mL (≈ 1.19 µM) | MIC (Neisseria perflava 12, Consensus): 0.5 µg/mL (≈ 1.19 µM) | MIC (Neisseria perflava 12, Replicate 1): 0.5 µg/mL (≈ 1.19 µM) | MIC (Neisseria perflava 12, Replicate 2): 0.5 µg/mL (≈ 1.19 µM) | MIC (Neisseria perflava 12, Replicate 3): 0.5 µg/mL (≈ 1.19 µM) | MIC (Neisseria perflava 13, Consensus): 0.25 µg/mL (≈ 0.595 µM) | MIC (Neisseria perflava 13, Replicate 1): 0.25 µg/mL (≈ 0.595 µM) | MIC (Neisseria perflava 13, Replicate 2): 0.25 µg/mL (≈ 0.595 µM) | MIC (Neisseria perflava 13, Replicate 3): 0.25 µg/mL (≈ 0.595 µM) | MIC (Neisseria perflava 14, Consensus): 0.5 µg/mL (≈ 1.19 µM) | MIC (Neisseria perflava 14, Replicate 1): 0.5 µg/mL (≈ 1.19 µM) | MIC (Neisseria perflava 14, Replicate 2): 0.5 µg/mL (≈ 1.19 µM) | MIC (Neisseria perflava 14, Replicate 3): 0.5 µg/mL (≈ 1.19 µM) | MIC (Neisseria perflava 15, Consensus): 0.5 µg/mL (≈ 1.19 µM) | MIC (Neisseria perflava 15, Replicate 1): 0.5 µg/mL (≈ 1.19 µM) | MIC (Neisseria perflava 15, Replicate 2): 0.5 µg/mL (≈ 1.19 µM) | MIC (Neisseria perflava 15, Replicate 3): 0.5 µg/mL (≈ 1.19 µM) | MIC (Neisseria perflava 16, Consensus): 0.5 µg/mL (≈ 1.19 µM) | MIC (Neisseria perflava 16, Replicate 1): 0.5 µg/mL (≈ 1.19 µM) | MIC (Neisseria perflava 16, Replicate 2): 0.5 µg/mL (≈ 1.19 µM) | MIC (Neisseria perflava 16, Replicate 3): 1 µg/mL (≈ 2.38 µM) | MIC (Neisseria perflava 17, Consensus): 0.5 µg/mL (≈ 1.19 µM) | MIC (Neisseria perflava 17, Replicate 1): 0.5 µg/mL (≈ 1.19 µM) | MIC (Neisseria perflava 17, Replicate 2): 0.5 µg/mL (≈ 1.19 µM) | MIC (Neisseria perflava 17, Replicate 3): 0.5 µg/mL (≈ 1.19 µM) | MIC (Neisseria perflava 18, Replicate 2): 0.25 µg/mL (≈ 0.595 µM) | MIC (Neisseria perflava 19, Consensus): 1 µg/mL (≈ 2.38 µM) | MIC (Neisseria perflava 19, Replicate 1): 1 µg/mL (≈ 2.38 µM) | MIC (Neisseria perflava 19, Replicate 2): 1 µg/mL (≈ 2.38 µM) | MIC (Neisseria perflava 19, Replicate 3): 1 µg/mL (≈ 2.38 µM) | MIC (Neisseria perflava 20, Consensus): 0.5 µg/mL (≈ 1.19 µM) | MIC (Neisseria perflava 20, Replicate 1): 0.5 µg/mL (≈ 1.19 µM) | MIC (Neisseria perflava 20, Replicate 2): 0.5 µg/mL (≈ 1.19 µM) | MIC (Neisseria perflava 20, Replicate 3): 0.5 µg/mL (≈ 1.19 µM) | MIC (Neisseria perflava 21, Consensus): 1 µg/mL (≈ 2.38 µM) | MIC (Neisseria perflava 21, Replicate 1): 1 µg/mL (≈ 2.38 µM) | MIC (Neisseria perflava 21, Replicate 2): 1 µg/mL (≈ 2.38 µM) | MIC (Neisseria perflava 21, Replicate 3): 1 µg/mL (≈ 2.38 µM) | MIC (Neisseria perflava 22, Consensus): 1 µg/mL (≈ 2.38 µM) | MIC (Neisseria perflava 22, Replicate 1): 1 µg/mL (≈ 2.38 µM) | MIC (Neisseria perflava 22, Replicate 2): 1 µg/mL (≈ 2.38 µM) | MIC (Neisseria perflava 22, Replicate 3): 1 µg/mL (≈ 2.38 µM) | MIC (Neisseria perflava 23, Consensus): 0.5 µg/mL (≈ 1.19 µM) | MIC (Neisseria perflava 23, Replicate 1): 0.5 µg/mL (≈ 1.19 µM) | MIC (Neisseria perflava 23, Replicate 2): 0.5 µg/mL (≈ 1.19 µM) | MIC (Neisseria perflava 23, Replicate 3): 0.5 µg/mL (≈ 1.19 µM) | MIC (Neisseria perflava 25, Consensus): 1 µg/mL (≈ 2.38 µM) | MIC (Neisseria perflava 25, Replicate 1): 1 µg/mL (≈ 2.38 µM) | MIC (Neisseria perflava 25, Replicate 2): 1 µg/mL (≈ 2.38 µM)
